Laboratory results taken from EP4696691A1, “TRICYCLIC COMPOUND, AND PREPARATION METHOD THEREFOR AND USE THEREOF” (Shanghai Huilun Pharmaceutical Co., Ltd., priority 2023, dated 2024).

Experiment: Pharmacokinetic behavior in mice (plasma concentration by LC-MS/MS)
Format: in vivo
Details: male ICR mice
Procedure: (§1) Three healthy ICR mice (SPF grade, from Beijing Vital River Laboratory Animal Technology Co., Ltd.), male, weighing 18-25 g, were intravenously injected with a compound (1 mg/kg) at a volume of 5 mL/kg. The compound was prepared using 5% DMSO+10% Solutol+85% Saline (w/v), and the animals were not fasted before the experiment.
as §1, with “were intragastrically administered” for “were intravenously injected with”, “compound (5” for “compound (1”, “of 10” for “of 5”
Blood samples (about 0.05 mL each) were collected from the cheeks at 5 min, 15 min, 30 min, 1 h, 2 h, 4 h, 6 h, 8 h, and 24 h after intravenous administration, and at 5 min, 15 min, 30 min, 1 h, 2 h, 4 h, 6 h, 8 h, and 24 h after intragastrical administration, and anticoagulated with heparin sodium. Following collection, the blood samples were placed on ice and the plasma was centrifuged within 1 h (centrifugation conditions: 6,000 g, 3 min, 2 °C to 8°C). The concentration of the compounds in the plasma was determined by liquid chromatography tandem mass spectrometry. The plasma samples were stored in a -80°C freezer before analysis. With plasma concentration data at different time points, pharmacokinetic parameters were calculated by Phoenix WinNonlin8.2.0, and the results are shown in Table 4: Table 4

[1] = Intragastric administration (5 mg/kg), 5 mg/kg
[2] = Intravenous injection (1 mg/kg), 1 mg/kg

- AUClast [1]: 16.903 µg·h/mL
- Cmax [1]: 1.457 µg/mL
- F% [1]: 44.5%
- T1/2 [1]: 5.32 h
- AUClast [2]: 7.249 µg·h/mL
- CL [2]: 0.126 L/h/kg
- Cmax [2]: 0.888 µg/mL
- Vss [2]: 1.19 L/kg
Compound: CC(C)(O)c1cc2nn([C@H]3CC[C@H](CCN4CCN5c6ccc(C7(C)CCC(=O)NC7=O)cc6OC[C@H]5C4)CC3)cc2cc1NC(=O)c1cccc(C(F)(F)F)n1 (single isomer, unassigned) [Compound 120-b-1]
